For test [1], the system named is TNFα. Put plainly: cells. Format: cell-based, human. The note with it: Homo sapiens, Monocyte, LPS-stimulated human monocytes, TNFα content; read-out: EC50 TNF.
Test [2] deals with IRAK4 enzyme (Homo sapiens (Human), UniProt Q9NWZ3). Put plainly: biochemical. Type of test: biochemical. The note with it: IRAK4 enzyme, TR-FRET (HTRF), 500 μM ATP.

pEC50, pIC50: −log10 of the molar value. A value given as a limit tells only on which side of the number the result lay.

Sequence of IRAK4 enzyme (Q9NWZ3 whole entry): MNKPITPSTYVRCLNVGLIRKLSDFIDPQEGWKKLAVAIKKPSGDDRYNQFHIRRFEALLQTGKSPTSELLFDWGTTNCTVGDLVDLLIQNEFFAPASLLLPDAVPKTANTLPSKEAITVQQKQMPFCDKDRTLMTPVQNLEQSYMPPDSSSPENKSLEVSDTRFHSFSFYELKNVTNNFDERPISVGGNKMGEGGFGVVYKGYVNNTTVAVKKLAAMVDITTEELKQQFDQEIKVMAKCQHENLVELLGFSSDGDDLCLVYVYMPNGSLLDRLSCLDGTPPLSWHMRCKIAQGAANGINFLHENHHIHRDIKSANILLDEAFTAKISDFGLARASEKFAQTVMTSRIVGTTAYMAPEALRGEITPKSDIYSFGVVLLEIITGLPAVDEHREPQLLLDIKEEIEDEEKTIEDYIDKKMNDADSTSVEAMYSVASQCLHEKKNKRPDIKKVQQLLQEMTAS

For the molecule `CCS(=O)(=O)CCCNc1cc(-c2ccc3cc(C#N)cnn23)ncc1C(=O)NC[C@@H](F)C(C)(C)O` [Example 439, (R)-6-(3-cyanopyrrolo[1,2-b]pyridazin-7-yl)-4-((3-(ethylsulfonyl)propyl)amino)-N-(2-fluoro-3-hydroxy-3-methylbutyl) nicotinamide], the negative-log EC50 (pEC50) in test [1] is 7.40. Further, the pIC50 in test [2] was > 9.00.
In the same order, the values of `CC(CCS(C)(=O)=O)Nc1cc(-c2ccc3cc(C#N)cnn23)ncc1C(=O)NC[C@@H](F)C(C)(C)O` (stereo partly drawn) [Example 440, 6-(3-cyanopyrrolo[1,2-b]pyridazin-7-yl)-N-((R)-2-fluoro-3-hydroxy-3-methylbutyl)-4-((4-(methylsulfonyl)butan-2-yl)amino)nicotinamide] are 6.15 and 8.70.
On the same counts, the results for `Cn1ccc(Nc2cc(-c3ccc4cc(C#N)cnn34)ncc2C(=O)NC[C@@H](F)C(C)(C)O)cc1=O` [Example 442, (R)-6-(3-cyanopyrrolo[1,2-b]pyridazin-7-yl)-N-(2-fluoro-3-hydroxy-3-methylbutyl)-4-((1-methyl-2-oxo-1,2-dihydropyridin-4-yl)amino)nicotinamide] are 6.98 and 9.00.
On the same counts, the results for `CC(C)(O)[C@H](F)CNC(=O)c1cnc(-c2ccc3cc(C#N)cnn23)cc1N[C@H]1C[C@H](S(C)(=O)=O)C1` [Example 443, 6-(3-cyanopyrrolo[1,2-b]pyridazin-7-yl)-N-((R)-2-fluoro-3-hydroxy-3-methylbutyl)-4-(((1r,3R)-3-(methylsulfonyl)cyclobutyl)amino)nicotinamide] are 6.96 and 9.00.
`CC(C)(O)[C@H](F)CNC(=O)c1cnc(-c2ccc3cc(C#N)cnn23)cc1N[C@H]1CC[C@](C)(O)CC1` [Example 445, 6-(3-cyanopyrrolo[1,2-b]pyridazin-7-yl)-N-((R)-2-fluoro-3-hydroxy-3-methylbutyl)-4-(((1r,4R)-4-hydroxy-4-methylcyclo-hexyl)amino)nicotinamide]: the pEC50 in test [1] is 7.23. In addition, in test [2], the pIC50 was 9.00.
In the same order, the values of `CC(C)(O)[C@H](F)CNC(=O)c1cnc(-c2ccc3cc(C#N)cnn23)cc1N[C@H]1C[C@](C)(O)C1` [Example 446, 6-(3-cyanopyrrolo[1,2-b]pyridazin-7-yl)-N-((R)-2-fluoro-3-hydroxy-3-methylbutyl)-4-(((1r,3R)-3-hydroxy-3-methylcyclobutyl)amino) nicotinamide] are 7.20 and 9.00.
On to `CC(=O)N1CC2(CC(Nc3cc(-c4ccc5cc(C#N)cnn45)ncc3C(=O)NC[C@@H](F)C(C)(C)O)C2)C1` [Example 447, (R)-4-((2-acetyl-2-azaspiro[3.3]heptan-6-yl)amino)-6-(3-cyano-pyrrolo[1,2-b]pyridazin-7-yl)-N-(2-fluoro-3-hydroxy-3-methylbutyl) nicotinamide], for which, in test [1], the pEC50 was 6.54. For the same molecule, in test [2], the pIC50 was 8.30.
On the same counts, the results for `CC(C)(C)OC(=O)N1CC2(CC(Nc3cc(-c4ccc5cc(C#N)cnn45)ncc3C(=O)NC[C@@H](F)C(C)(C)O)C2)C1` [Example 448, (R)-tert-butyl 6-((2-(3-cyanopyrrolo[1,2-b]pyridazin-7-yl)-5-((2-fluoro-3-hydroxy-3-methylbutyl)carbamoyl)pyridin-4-yl)amino)-2-azaspiro[3.3]heptane-2-carboxylate] are 5.69 and 7.49.
In the same order, the values of `CC(=O)N1CC(Nc2cc(-c3ccc4cc(C#N)cnn34)ncc2C(=O)NC[C@@H](F)C(C)(C)O)C1` [Example 449, (R)-4-((1-acetylazetidin-3-yl)amino)-6-(3-cyano-pyrrolo[1,2-b]pyridazin-7-yl)-N-(2-fluoro-3-hydroxy-3-methylbutyl)nicotinamide] are 6.44 and 8.52.
On the same counts, the results for `CC(C)(O)[C@H](F)CNC(=O)c1cnc(-c2ccc3cc(C#N)cnn23)cc1N[C@H]1C[C@@](C)(O)C1` [Example 450, 6-(3-cyanopyrrolo[1,2-b]pyridazin-7-yl)-N-((R)-2-fluoro-3-hydroxy-3-methylbutyl)-4-(((1s,3S)-3-hydroxy-3-methylcyclo-butyl)amino)nicotinamide] are 7.36 and > 9.00.
As for `CNC(=O)c1ccc(Nc2cc(-c3ccc4cc(C#N)cnn34)ncc2C(=O)NCC#N)cc1` [Example 451, N-(cyanomethyl)-6-(3-cyanopyrrolo[1,2-b]pyridazin-7-yl)-4-((4-(methylcarbamoyl)phenyl)amino) nicotinamide], the pEC50 in test [1] is 7.52. For the same molecule, in test [2], the pIC50 was > 9.00.
In the same order, the values of `CC1(O)CC2(CC(Nc3cc(-c4ccc5cc(C#N)cnn45)ncc3C(=O)NCC#N)C2)C1` (stereo not shown) [Example 452, N-(cyanomethyl)-6-(3-cyanopyrrolo[1,2-b]pyridazin-7-yl)-4-((6-hydroxy-6-methyl-spiro[3.3]heptan-2-yl)amino)nicotinamide] are 6.95 and > 9.00.
In the same order, the values of `N#CCNC(=O)c1cnc(-c2ccc3cc(C#N)cnn23)cc1NC1CC2(CC(O)C2)C1` (stereo not shown) [Example 453, N-(cyanomethyl)-6-(3-cyanopyrrolo[1,2-b]pyridazin-7-yl)-4-((6-hydroxyspiro[3.3]heptan-2-yl)amino) nicotinamide] are 7.17 and > 9.00.
On the same counts, the results for `N#CCNC(=O)c1cnc(-c2ccc3cc(C#N)cnn23)cc1NC12CCC(C(=O)NC3COC3)(CC1)CC2` [Example 454, N-(cyanomethyl)-6-(3-cyanopyrrolo[1,2-b]pyridazin-7-yl)-4-((4-(oxetan-3-ylcarbamoyl)bicyclo[2.2.2]octan-1-yl)amino)nicotinamide] are 6.68 and > 9.00.
With `COC(=O)N[C@H]1C[C@H](Nc2cc(-c3ccc4cc(C#N)cnn34)ncc2C(=O)NC[C@@H](F)C(C)(C)O)C1` [Example 455, methyl ((1R,3r)-3-((2-(3-cyanopyrrolo[1,2-b]pyridazin-7-yl)-5-(((R)-2-fluoro-3-hydroxy-3-methylbutyl)carbamoyl)pyridin-4-yl)amino)cyclobutyl)carbamate], the pEC50 in test [1] is 6.93. Further, in test [2], the pIC50 is 9.00.
With `CC(=O)N[C@H]1C[C@H](Nc2cc(-c3ccc4cc(C#N)cnn34)ncc2C(=O)NC[C@@H](F)C(C)(C)O)C1` [Example 456, 4-(((1r,3R)-3-acetamidocyclobutyl)amino)-6-(3-cyanopyrrolo[1,2-b]pyridazin-7-yl)-N-((R)-2-fluoro-3-hydroxy-3-methylbutyl)nicotinamide], in test [1], the pEC50 was 6.40. This molecule gave a pIC50 in test [2] of 9.00.
Turning to `COC(=O)N[C@H]1C[C@@H](Nc2cc(-c3ccc4cc(C#N)cnn34)ncc2C(=O)NC[C@@H](F)C(C)(C)O)C1` [Example 457, methyl ((1S,3s)-3-((2-(3-cyanopyrrolo[1,2-b]pyridazin-7-yl)-5-(((R)-2-fluoro-3-hydroxy-3-methylbutyl)carbamoyl)pyridin-4-yl)amino)cyclo-butyl)carbamate], the pEC50 in test [1] is 6.43. Further, in test [2], the pIC50 was 8.52.
On the same counts, the results for `CC(=O)N[C@H]1C[C@@H](Nc2cc(-c3ccc4cc(C#N)cnn34)ncc2C(=O)NC[C@@H](F)C(C)(C)O)C1` [Example 458, 4-(((1s,3S)-3-acetamidocyclobutyl)amino)-6-(3-cyano-pyrrolo[1,2-b]pyridazin-7-yl)-N-((R)-2-fluoro-3-hydroxy-3-methylbutyl)nicotinamide] are 5.61 and 8.52.
In the same order, the values of `N#CCNC(=O)c1cnc(-c2ccc3cc(C#N)cnn23)cc1N[C@H]1CCC[C@@H](O)C1` [Example 459, N-(cyanomethyl)-6-(3-cyanopyrrolo[1,2-b]pyridazin-7-yl)-4-(((1S,3R)-3-hydroxycyclohexyl)amino) nicotinamide] are 6.90 and 9.00.
Consider `N#CCNC(=O)c1cnc(-c2ccc3cc(C#N)cnn23)cc1NC1COC1` [Example 460, N-(cyanomethyl)-6-(3-cyanopyrrolo[1,2-b]pyridazin-7-yl)-4-(oxetan-3-ylamino) nicotinamide], for which the pEC50 in test [1] was 7.15. Also, the pIC50 in test [2] was > 9.00.
As to `N#CCNC(=O)c1cnc(-c2ccc3cc(C#N)cnn23)cc1NC1CC1` [Example 461, N-(cyanomethyl)-6-(3-cyanopyrrolo[1,2-b]pyridazin-7-yl)-4-(cyclopropylamino) nicotinamide], the pEC50 in test [1] was 7.24. In test [2], the pIC50 is > 9.00.
Regarding `CC(C)Nc1cc(-c2ccc3cc(C#N)cnn23)ncc1C(=O)NCC#N` [Example 462, N-(cyanomethyl)-6-(3-cyanopyrrolo[1,2-b]pyridazin-7-yl)-4-(isopropylamino) nicotinamide], the pEC50 in test [1] is 7.17. Moreover, the pIC50 in test [2] was > 9.00.
In the same order, the values of `CNc1cc(-c2ccc3cc(C#N)cnn23)ncc1C(=O)NCC#N` [Example 463, N-(cyanomethyl)-6-(3-cyanopyrrolo[1,2-b]pyridazin-7-yl)-4-(methylamino)nicotinamide] are 6.79 and 8.52.
On the same counts, the results for `CNC(=O)c1cnc(-c2ccc3cc(C#N)cnn23)cc1N[C@@H]1CCC[C@@H](C(=O)NC)C1` [Example 464, 6-(3-cyanopyrrolo[1,2-b]pyridazin-7-yl)-N-methyl-4-(((1R,3R)-3-(methylcarbamoyl)cyclohexyl)amino) nicotinamide] are 5.96 and 7.64.
Regarding `CNC(=O)c1cnc(-c2ccc3cc(C#N)cnn23)cc1N[C@H]1CC[C@@H](C(=O)NC)C1` [Example 465, 6-(3-cyanopyrrolo[1,2-b]pyridazin-7-yl)-N-methyl-4-(((1S,3R)-3-(methyl-carbamoyl)cyclopentyl)amino)nicotinamide], the negative logarithm of the EC50 (pEC50) in test [1] is 6.39. This molecule also showed a pIC50 in test [2] of 8.10.
On the same counts, the results for `CNC(=O)c1cnc(-c2ccc3cc(C#N)cnn23)cc1N[C@@H]1CC[C@@H](C(=O)NC)C1` [Example 466, 6-(3-cyanopyrrolo[1,2-b]pyridazin-7-yl)-N-methyl-4-(((1R,3R)-3-(methyl-carbamoyl)cyclopentyl)amino)nicotinamide] are 6.59 and 8.10.

The values above are taken from patent publication US10336762B2 (priority 2017, dated 2019).
